Reference: ChEMBL document CHEMBL1126499, “Inhibition of 2,3-oxidosqualene cyclase by N-alkylpiperidines” (Bioorg Med Chem Lett, 1993)

Assays:
Lanosterol synthase = target: T1, Lanosterol synthase (Rattus norvegicus, UniProt P48450); assay: Inhibitory concentration against purified rat liver Oxidosqualene cyclase (OSC); NI means no inhibition
T1 sequence (P48450 whole entry): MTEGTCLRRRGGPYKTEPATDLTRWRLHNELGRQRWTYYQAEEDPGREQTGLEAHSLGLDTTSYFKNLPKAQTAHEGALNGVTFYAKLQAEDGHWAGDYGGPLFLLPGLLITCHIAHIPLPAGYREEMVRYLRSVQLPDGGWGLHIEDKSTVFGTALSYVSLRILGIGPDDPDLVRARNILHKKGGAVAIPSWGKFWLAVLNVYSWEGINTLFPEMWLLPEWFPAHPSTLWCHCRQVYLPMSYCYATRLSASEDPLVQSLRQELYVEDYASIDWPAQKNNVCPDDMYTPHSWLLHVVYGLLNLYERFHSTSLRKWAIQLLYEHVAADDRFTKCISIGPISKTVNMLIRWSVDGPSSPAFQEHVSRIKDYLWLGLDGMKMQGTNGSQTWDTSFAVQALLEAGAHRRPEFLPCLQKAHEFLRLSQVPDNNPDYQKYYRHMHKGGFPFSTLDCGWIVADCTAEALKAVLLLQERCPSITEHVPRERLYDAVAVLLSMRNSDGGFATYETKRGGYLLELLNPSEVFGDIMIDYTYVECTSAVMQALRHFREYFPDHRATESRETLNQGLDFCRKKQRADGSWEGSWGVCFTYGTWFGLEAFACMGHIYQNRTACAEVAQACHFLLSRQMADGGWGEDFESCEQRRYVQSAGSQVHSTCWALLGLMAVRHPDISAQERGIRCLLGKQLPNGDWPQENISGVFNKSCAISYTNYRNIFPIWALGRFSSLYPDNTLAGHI

HepG2 = assay: Inhibitory concentration against cholesterol biosynthesis in HepG2 cells.; conditions: Homo sapiens

Row | SMILES | IC50 (Lanosterol synthase) | IC50 (HepG2) [nM]
1 | C[C@@H]1[C@@H](O)CC[C@]2(C)CN(Cc3ccccc3)CC[C@@H]12 | Not Active | 
2 | CCCCCCCCCCCCN1CCC(C(C)CO)CC1 (stereo not given) |  | 40
3 | CC(C)CCCC(C)CCCC(C)N1CCCCC1 (stereo not given) |  | 30000

Further lines, results first:

Row | IC50 (Lanosterol synthase) | IC50 (HepG2) [nM] | SMILES
4 |  | 12 | CCCCCCCCCCCCC(=O)N1CCC(C(C)CO)CC1 (stereo not given)
5 |  | 0.7 | CCCCCCCCCCCC(=O)N1CC[C@H]2[C@H](C)[C@@H](O)CC[C@]2(C)C1
